# According to patent US20260231994A1, “TASTE-ENHANCING COMPOSITION, METHOD FOR PRODUCING SAME, FOOD PRODUCT, AND METHOD FOR ENHANCING TASTE OF FOOD PRODUCT” (HOUSE FOODS GROUP INC., priority 2023, published 2026):
# Experiments:
# Assay type in all cases: in vivo
# [1] = Experiment 6 sensory evaluation of cyclic dipeptides, “boosting of last flavor (aftertaste)”
# Experimental: (§1) An aqueous solution in which the concentration of each of the cyclic dipeptides shown in the table described below is set to be the same as its concentration in the heat-treated coriander prepared in 1.1. described above, as estimated from the ratio of the peak area of the cyclic dipeptides to the peak area of the internal standard (47 μg/g of L-lysine-^13C6 monohydrochloride) (hereinafter referred to as “heat-treated coriander equivalent aqueous solution”) was prepared. An aqueous solution in which the concentration of each of the cyclic dipeptides is set to be the same as its concentration in the heat-treated paprika of Example 203 prepared in 2.1 described above (hereinafter referred to as “heat-treated paprika equivalent aqueous solution”) was also prepared. Cyclic dipeptides prepared by the applicant were used in this experiment. As a cyclic dipeptide comprising Leu/Ile, a mixture comprising equal parts of cyclic dipeptide comprising Leu and cyclic dipeptide comprising Ile was used.
# (§2) Common and reduced-sodium curry rouxes were prepared according to the procedures described in (1) and (2) of 1.3. described above.
# (§3) Two dispersions of 44 g of the aforesaid reduced-sodium curry roux dispersed in 300 g of hot water were prepared. To one of them was added the heat-treated coriander equivalent solution or heat-treated paprika equivalent aqueous solution of the individual cyclic dipeptides shown in the table described below so as to be in the final concentration of 0.5% (w/w) or 1.0% (w/w), respectively.
# (§4) Forty-four grams of the aforesaid common curry roux was dispersed in 300 g of hot water.
# (§5) The dispersion of reduced-sodium curry roux dispersed in hot water and the dispersion of common curry roux dispersed in hot water were used as comparative controls, and the strength of the flavor was evaluated by three evaluators on the basis of the following evaluation criteria from the viewpoint of “top sharp saltiness”, “middle fullness (enhanced thickness) and “boosting of last flavor (aftertaste).”
# (§6) The average of the evaluated scores was defined as “F” when it was 1.0 or lower, “C” when it was 1.1 or higher and 1.9 or lower, “B” when it was 2.0 or higher and 2.5 or lower, “A” when it was 2.6 or higher and 2.9 or lower, and “AA” when it was 3.0 or higher.
# (§7) In the table described below, “ID” refers to the compound ID described above. The items of “coriander 0.5%” and “coriander 1.0%” refer to the addition of the aforesaid heat-treated coriander equivalent aqueous solution of cyclic dipeptide so that the final concentrations may be 0.5% (w/w) and 1.0% (w/w), respectively. The items of “paprika 0.5%” and “paprika 1.0%” refer to the addition of the aforesaid heat-treated paprika equivalent aqueous solution of cyclic dipeptide so that the final concentration may be 0.5% (w/w) and 1.0% (w/w), respectively.
# [2] = Experiment 6 sensory evaluation of cyclic dipeptides, “top sharp saltiness”
# Experimental: as §1, §2, §3, §4, §5, §6, §7
# [3] = Experiment 6 sensory evaluation of cyclic dipeptides, “middle fullness (enhanced thickness)”
# Experimental: as §1, §2, §3, §4, §5, §6, §7
# [4] = Additive amount coriander 0.5%, reduced-sodium curry roux
# [5] = heat-treated coriander equivalent aqueous solution of cyclic dipeptide, final 1.0% (w/w) in reduced-sodium curry roux dispersion
# [6] = heat-treated coriander equivalent aqueous solution of cyclic dipeptide, final 1.0% (w/w) in reduced-sodium curry roux dispersion, 3 evaluators
# [7] = Additive amount coriander 0.5% (heat-treated coriander equivalent aqueous solution, final 0.5% (w/w)), reduced-sodium curry roux
# [8] = Additive amount paprika 0.5%, reduced-sodium curry roux
# [9] = heat-treated paprika equivalent aqueous solution of cyclic dipeptide, final 1.0% (w/w) in reduced-sodium curry roux dispersion
# [10] = heat-treated paprika equivalent aqueous solution of cyclic dipeptide, final 1.0% (w/w) in reduced-sodium curry roux dispersion, 3 evaluators
substance,measurement,setting,value
cyclic (Gly-Ser) [Coriander ID 5],Bosting of last flavor Average,[1]; [4],2.2 points
same,Bosting of last flavor Evaluation,[1]; [4],B (“B” when it was 2.0 or higher and 2.5 or lower)
same,Bosting of last flavor Evaluation,[1]; [5],B (“B” when it was 2.0 or higher and 2.5 or lower)
same,Bosting of last flavor Average,[1]; [6],2.3 points
same,Top sharp saltiness Average,[2]; [7],1.7 points
same,Top sharp saltiness Evaluation,[2]; [4],C (“C” when it was 1.1 or higher and 1.9 or lower)
same,Top sharp saltiness Evaluation,[2]; [5],C (“C” when it was 1.1 or higher and 1.9 or lower)
same,Top sharp saltiness Average,[2]; [6],1.8 points
same,Middle fullness Average,[3]; [4],2.0 points
same,Middle fullness Evaluation,[3]; [4],B (“B” when it was 2.0 or higher and 2.5 or lower)
same,Middle fullness Evaluation,[3]; [5],B (“B” when it was 2.0 or higher and 2.5 or lower)
same,Middle fullness Average,[3]; [6],2.3 points
cyclic (Gly-Thr) [Coriander ID 60],Bosting of last flavor Average,[1]; [4],3.2 points
same,Bosting of last flavor Evaluation,[1]; [4],AA (“AA” when it was 3.0 or higher)
same,Bosting of last flavor Evaluation,[1]; [5],B (“B” when it was 2.0 or higher and 2.5 or lower)
same,Bosting of last flavor Average,[1]; [6],2.5 points
same,Top sharp saltiness Average,[2]; [7],3.3 points
same,Top sharp saltiness Evaluation,[2]; [4],AA (“AA” when it was 3.0 or higher)
same,Top sharp saltiness Evaluation,[2]; [5],B (“B” when it was 2.0 or higher and 2.5 or lower)
same,Top sharp saltiness Average,[2]; [6],2.0 points
same,Middle fullness Average,[3]; [4],3.2 points
same,Middle fullness Evaluation,[3]; [4],AA (“AA” when it was 3.0 or higher)
same,Middle fullness Evaluation,[3]; [5],A (“A” when it was 2.6 or higher and 2.9 or lower)
same,Middle fullness Average,[3]; [6],2.7 points
cyclic (Gly-Tyr) [Coriander ID 44],Bosting of last flavor Average,[1]; [4],2.3 points
same,Bosting of last flavor Evaluation,[1]; [4],B (“B” when it was 2.0 or higher and 2.5 or lower)
same,Bosting of last flavor Evaluation,[1]; [5],A (“A” when it was 2.6 or higher and 2.9 or lower)
same,Bosting of last flavor Average,[1]; [6],2.8 points
same,Top sharp saltiness Average,[2]; [7],1.7 points
same,Top sharp saltiness Evaluation,[2]; [4],C (“C” when it was 1.1 or higher and 1.9 or lower)
same,Top sharp saltiness Evaluation,[2]; [5],B (“B” when it was 2.0 or higher and 2.5 or lower)
same,Top sharp saltiness Average,[2]; [6],2.2 points
same,Middle fullness Average,[3]; [4],2.0 points
same,Middle fullness Evaluation,[3]; [4],B (“B” when it was 2.0 or higher and 2.5 or lower)
same,Middle fullness Evaluation,[3]; [5],B (“B” when it was 2.0 or higher and 2.5 or lower)
same,Middle fullness Average,[3]; [6],2.2 points
cyclic (Leu/Ile-His) [Coriander ID 52],Bosting of last flavor Average,[1]; [4],2.8 points
same,Bosting of last flavor Evaluation,[1]; [4],A (“A” when it was 2.6 or higher and 2.9 or lower)
same,Bosting of last flavor Evaluation,[1]; [5],AA (“AA” when it was 3.0 or higher)
same,Bosting of last flavor Average,[1]; [6],3.0 points
same,Top sharp saltiness Average,[2]; [7],3.3 points
same,Top sharp saltiness Evaluation,[2]; [4],AA (“AA” when it was 3.0 or higher)
same,Top sharp saltiness Evaluation,[2]; [5],B (“B” when it was 2.0 or higher and 2.5 or lower)
same,Top sharp saltiness Average,[2]; [6],2.3 points
same,Middle fullness Average,[3]; [4],3.2 points
same,Middle fullness Evaluation,[3]; [4],AA (“AA” when it was 3.0 or higher)
same,Middle fullness Evaluation,[3]; [5],A (“A” when it was 2.6 or higher and 2.9 or lower)
same,Middle fullness Average,[3]; [6],2.7 points
cyclic (Leu/Ile-Leu/Ile) [Coriander ID 1],Bosting of last flavor Average,[1]; [8],3.0 points
same,Bosting of last flavor Evaluation,[1]; [8],AA (“AA” when it was 3.0 or higher)
same,Bosting of last flavor Evaluation,[1]; [9],B (“B” when it was 2.0 or higher and 2.5 or lower)
same,Bosting of last flavor Average,[1]; [10],2.3 points
same,Top sharp saltiness Average,"[2]; Additive amount paprika 0.5% (heat-treated paprika equivalent aqueous solution, final 0.5% (w/w)), reduced-sodium curry roux",2.7 points
same,Top sharp saltiness Evaluation,[2]; [8],A (“A” when it was 2.6 or higher and 2.9 or lower)
same,Top sharp saltiness Evaluation,[2]; [9],C (“C” when it was 1.1 or higher and 1.9 or lower)
same,Top sharp saltiness Average,[2]; [10],1.7 points
same,Middle fullness Average,[3]; [8],2.7 points
same,Middle fullness Evaluation,[3]; [8],A (“A” when it was 2.6 or higher and 2.9 or lower)
same,Middle fullness Evaluation,[3]; [9],C (“C” when it was 1.1 or higher and 1.9 or lower)
same,Middle fullness Average,[3]; [10],1.8 points
